The text below walks through data of patent US8796282B2, “Method of treating dermatological disorders” (Case Western Reserve University, priority 2007, dated 2014).

For one assay, the system named is Patients with LLP. The assay can be described thus: Treatment of patients with lichen planopilaris with low dose Actos. The class given is in vivo, human. To be noted: for inflammatory cells in scalp biopsy histology: one patient, H&E. The procedure:
Patients were treated with Actos (Pioglitazone), a PPARγ agonist that is currently used to treat diabetes. Patients with LLP were given a low dose of Actos, i.e., less than about 15 mg/daily. […] The histology of scalp biopsy of one of the patients before, after one year of treatment, and after two years of treatment are shown in FIGS. 18-20. […] Therefore, PPAR agonist is effective in reducing symptoms.

Assay [1] concerns PEX genes (PEX3, PEX16, PMP22). As to the kind of experiment: PEX (peroxisomal) gene expression in a human keratocyte cell line / cultured human keratinocytes exposed to PPARγ agonists. Format: cell-based. Particulars: for expression of peroxisomal genes (PEX3, PEX16, PMP22): qualitative statement, cultured human keratinocytes. How it is done: (§1) Quantitative real-time RT-PCR. FAM labeled PCR primers and TaqMan hydrolysis probes for all target genes and 18S rRNA were purchased from Perkin-Elmer Applied Biosystems (Foster City, Calif.). Real-time PCR was performed on an ABI Prism 7700 Sequence Detection System (PE Biosystems) according to the recommendation of the manufacturer. The target gene expression in LPP and control samples was quantitated by the comparative CT method as described in the ABI Prism 7700 Sequence Detection System manual (PE Biosystems).
Effect of PPARg agonists and antagonists on PEXgenes. Human Hair Follicle Outer Root Sheath Cells (ORS cells) were obtained from ScienCell™ (San Diego, Calif.) and grown in Mesenchymal Stem Cell Medium (MSCM) consisting of 500 ml of basal medium, 25 ml of fetal bovine serum, 5 ml of mesenchymal stem cell growth supplement and 5 ml of penicillin/streptomycin solution. HaCaT cells were cultured in Dulbecco's modified Eagle's medium containing 10% fetal bovine serum under 5% CO2 at 37° C. The different PPAR agonists were added in triplicate in dimethylsulfoxide (<0.1% by volume) for 48 hours to evaluate their effects on PEX gene expression by real-time PCR.

The subject of the next assay is PEX3 gene expression. The assay can be described thus: PEX3 gene expression in cultured outer root sheath (ORS) keratinocytes treated with PPAR agonists, real-time PCR. Format: cell-based, human. Particulars: for effect on PEX3 gene expression: cultured outer root sheath keratinocytes. The procedure:
(§2) HaCaT keratinocytes were treated with vehicle alone (0.1% DMSO) or with specific agonists (1 μM and 5 μM in 0.1% DMSO) of PPARγ-Ciglitazone (Cig), Rosiglitazone (Rosi), Pioglitazone (Pio) and Troglitazone (Tro), PPARα-WY-14363 and PPARδ-GW50516. After 48 hours, PEX16 gene expression was measured by real-time PCR.
(§3) We directly assessed the role of PPARγ in modulating peroxisomal gene expression by growing HaCat cells (human keratinocyte cell line) in the presence of PPAR agonists (1 μM and 5 μM concentrations in 0.1% DMSO) and monitoring gene expression by real-time PCR (FIG. 5b). The agonists tested were Ciglitazone (Cig), Rosiglitazone (Rosi), Pioglitazone (Pio) and Troglitazone (Tro) specific for PPARγ, WY-14363 specific for PPARα and GW50516 specific for PPARδ. […] We also examined whether expression of the PEX3 gene is modulated by the PPAR agonist Pioglitazone (Pio) in cultured outer root sheath keratinocytes. Cells were grown in the presence or absence of Pio and PEX3 gene expression was monitored by real-time PCR.
as §1
Effect of PPARg agonists and antagonists on PEXgenes. Human Hair Follicle Outer Root Sheath Cells (ORS cells) were obtained from ScienCell™ (San Diego, Calif.) and grown in Mesenchymal Stem Cell Medium (MSCM) consisting of 500 ml of basal medium, 25 ml of fetal bovine serum, 5 ml of mesenchymal stem cell growth supplement and 5 ml of penicillin/streptomycin solution. HaCaT cells were cultured in Dulbecco's modified Eagle's medium containing 10% fetal bovine serum under 5% CO2 at 37° C. […]
(Quantitative PCR measures a nucleic acid by following its amplification.)

The next assay relates to PEX16 gene expression. As to the kind of experiment: PEX16 gene expression in HaCaT keratinocytes treated with PPAR agonists, real-time PCR. The class given is cell-based, human. Particulars: HaCaT cells, 1 μM and 5 μM in 0.1% DMSO, 48 hours. How it is done:
as §2, §3
Quantitative real-time RT-PCR. […] The target gene expression in LPP and control samples was quantitated by the comparative CT method as described in the ABI Prism 7700 Sequence Detection System manual (PE Biosystems). […]

With `CCc1ccc(CCOc2ccc(CC3SC(=O)NC3=O)cc2)nc1` (stereo not shown) [Pioglitazone, 5-[4-[2-(5-ethylpyridin-2-yl)ethoxyl]benzyl]thiazolidine-2,4-dione], in the assay with Patients with LLP (LLP patients, less than about 15 mg/daily, patient-reported), the “itching, burning and pain associated with lichen planopilaries” value is “significant decrease”. For the same molecule, the “inflammatory cells in scalp biopsy histology” value was “Reduction is already seen” in the assay with Patients with LLP (after 1 year of treatment) and “complete clearing of inflammatory cells” in the assay with Patients with LLP (at two years of treatment). Also, the “expression of peroxisomal genes (PEX3, PEX16, PMP22)” value (“expression of peroxisomal genes” for short) in assay [1] is “induce the expression”. For the same molecule, the “increase in PEX3 gene expression” value with PEX3 gene expression (outer root sheath keratinocytes, 1 μM, compared to vehicle alone (0.1% DMSO)) came out at 4 fold.

Consider `CN(CCOc1ccc(CC2SC(=O)NC2=O)cc1)c1ccccn1` (stereo not shown) [Rosiglitazone, 5-[4-[2-(N-methyl-N-(2-pyridyl)amino]ethoxy]benzyl]thiazolidine-2,4-dione], for which the “increase in PEX gene expression” value in assay [1] (human keratocyte cell line) is recorded as “three-fold increase”. In addition, the “expression of peroxisomal genes” value in assay [1] is listed as “induces the expression”.

On to `Cc1cccc(Nc2cc(Cl)nc(SCC(=O)O)n2)c1C` [WY-14363], for which the “effect on PEX3 gene expression” value in the assay with PEX3 gene expression is “minimal effect”. Also, the “effect on PEX 16 gene expression” value with PEX16 gene expression is “minimal effect”.

`CC1(COc2ccc(CC3SC(=O)NC3=O)cc2)CCCCC1` (stereo not shown) [Ciglitazone, 5-[4-[(1-methylcyclohexyl)methoxy]benzyl]thiazolidine-2,4-dione]: the “expression of peroxisomal genes” value in assay [1] is recorded as “induce the expression”.

As for `Cc1cc(SCc2sc(-c3ccc(C(F)(F)F)cc3)nc2C)ccc1OCC(=O)O` [GW50516], the “effect on PEX3 gene expression” value in the assay on PEX3 gene expression is “minimal effect”. Besides, the “effect on PEX 16 gene expression” value in the assay on PEX16 gene expression is “minimal effect”.

As for `Cc1c(C)c2c(c(C)c1O)CCC(C)(COc1ccc(CC3SC(=O)NC3=O)cc1)O2` (single isomer, unassigned; (+)) [Troglitazone, (+)-5[[4-[(3,4-dihydro-6-hydroxy-2,5,7,8-tetramethyl-2H-1-benzopyran-2-yl)methoxy]phenyl]methyl]-2,4-thiazolidinedione], the “expression of peroxisomal genes” value in assay [1] is given as “induce the expression”.
